The text below walks through data of ChEMBL document CHEMBL3217472, “Identification of novel urea derivatives as PTP1B inhibitors: synthesis, biological evaluation and structureactivity relationships” (Medchemcomm, 2013).

Assay [1] has as its target T1, Tyrosine-protein phosphatase non-receptor type 1 (Homo sapiens) (UniProt P18031).
T1 sequence (whole entry): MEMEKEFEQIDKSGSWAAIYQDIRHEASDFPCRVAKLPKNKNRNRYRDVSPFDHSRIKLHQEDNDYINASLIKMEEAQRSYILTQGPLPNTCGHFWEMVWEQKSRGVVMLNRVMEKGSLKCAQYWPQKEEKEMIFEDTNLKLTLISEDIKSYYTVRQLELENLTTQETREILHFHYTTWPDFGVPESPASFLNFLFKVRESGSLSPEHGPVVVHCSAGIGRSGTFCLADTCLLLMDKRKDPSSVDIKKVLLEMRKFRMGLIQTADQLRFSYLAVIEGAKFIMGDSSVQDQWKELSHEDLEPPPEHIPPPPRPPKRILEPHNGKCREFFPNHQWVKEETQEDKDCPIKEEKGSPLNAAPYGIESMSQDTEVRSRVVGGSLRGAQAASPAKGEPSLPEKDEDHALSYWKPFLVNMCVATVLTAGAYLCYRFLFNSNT
Put plainly: Inhibition of human recombinant PTP1B using phosphopeptide as substrate at 10 uM after 30 mins by malachite green assay relative to control.

Assay [2] relates to Rattus norvegicus. The experiment in a line: Antihyperglycemic activity in streptozotocin-induced Sprague-Dawley albino rat diabetic model assessed as reduction of blood glucose AUC (0 to 24 hrs) at 100 mg/kg, po by glucometer relative to control. It counts as functional. More on the design: scale not given: the % may be the effect or the level left.
The test system of assay [3] is Rattus norvegicus. The experiment in a line: Antihyperglycemic activity in streptozotocin-induced Sprague-Dawley albino rat diabetic model assessed as reduction of blood glucose AUC (0 to 5 hrs) at 100 mg/kg, po by glucometer relative to control. It counts as functional. Also on record: scale not given: the % may be the effect or the level left.
Assay [4] has as its target T2, Tyrosine-protein phosphatase non-receptor type 1 (Homo sapiens, UniProt P18031).
T2 sequence (P18031 whole entry): T1 sequence (whole entry)
Put plainly: Inhibition of human recombinant PTP1B using phosphopeptide as substrate after 30 mins by malachite green assay.

Assay [5] deals with Mus musculus. The experiment in a line: Antihyperglycemic activity in C57BL/Ks db/db mouse assessed as reduction of blood glucose level at 30 mg/kg measured from day 8 to day 14. Also on record: dose 30 mg/kg. Format: functional, organism-based.
For assay [6], the system named is Mus musculus. The experiment in a line: In vivo inhibition of PTP1B in skeletal muscle of C57BL/Ks db/db mouse assessed as upregulation of p-IRSI protein expression at 30 mg/kg, po by Western blot analysis relative to vehicle-treated sham control. Format: functional, Muscle tissue. (In general: A western blot detects proteins with antibodies after separation by electrophoresis.)

Assay [7] relates to Mus musculus. Put plainly: Antidiabetic activity in C57BL/Ks db/db mouse assessed as improvement of HOMA index at 30 mg/kg relative to vehicle-treated sham control. It counts as functional.
For assay [8], the system named is Mus musculus. Put plainly: Antidiabetic activity in C57BL/Ks db/db mouse assessed as restoration of altered insulin level in serum at 30 mg/kg relative to vehicle-treated sham control. It counts as functional.
Assay [9] deals with Mus musculus. The experiment in a line: Antidiabetic activity in C57BL/Ks db/db mouse assessed as normalization of fasting blood glucose level at 30 mg/kg relative to vehicle-treated sham control. Format: functional.
Assay [10] deals with Mus musculus. Put plainly: Antidyslipidemic activity in C57BL/Ks db/db mouse assessed as increase in serum HDL-cholesterol level at 30 mg/kg measured on day 10 to 15 relative to vehicle-treated sham control. Format: functional.
Assay [11] has as its system Mus musculus. Put plainly: Antidyslipidemic activity in C57BL/Ks db/db mouse assessed as reduction of serum cholesterol level at 30 mg/kg measured on day 10 to 15 relative to vehicle-treated sham control. Format: functional.
For assay [12], the system named is Mus musculus. Put plainly: Antidyslipidemic activity in C57BL/Ks db/db mouse assessed as reduction of serum triglyceride level at 30 mg/kg measured on day 10 to 15 relative to vehicle-treated sham control. Format: functional.
Assay [13] deals with Mus musculus. The experiment in a line: Antihyperglycemic activity in C57BL/Ks db/db mouse assessed as reduction of blood glucose AUC (0 to 120 mins) at 30 mg/kg measured on day 15 by OGTT relative to vehicle-treated sham control. Format: functional.
Assay [14] relates to Mus musculus. Put plainly: Antihyperglycemic activity in C57BL/Ks db/db mouse assessed as reduction of blood glucose AUC (0 to 120 mins) at 30 mg/kg measured on day 10 by OGTT relative to vehicle-treated sham control. It counts as functional.
The target in assay [15] is T2, Tyrosine-protein phosphatase non-receptor type 1. The experiment in a line: Competitive inhibition of human recombinant PTP1B using IR5 as substrate by Lineweaver-Burk plot analysis.
For assay [16], the system named is Mus musculus. Put plainly: Antihyperglycemic activity in C57BL/Ks db/db mouse assessed as reduction of blood glucose level at 10 mg/kg measured from day 6 to day 14. Format: functional, organism-based. Also on record: dose 10 mg/kg.
In assay [17] the test system is Mus musculus. Put plainly: In vivo inhibition of PTP1B in skeletal muscle of C57BL/Ks db/db mouse assessed as upregulation of p-IRSI protein expression at 10 mg/kg, po by Western blot analysis relative to vehicle-treated sham control. Format: functional, Muscle tissue.
Assay [18] concerns Mus musculus. Put plainly: Antidiabetic activity in C57BL/Ks db/db mouse assessed as improvement of HOMA index at 10 mg/kg relative to vehicle-treated sham control. Format: functional.
Assay [19] relates to Mus musculus. The experiment in a line: Antidiabetic activity in C57BL/Ks db/db mouse assessed as restoration of altered insulin level in serum at 10 mg/kg relative to vehicle-treated sham control. It counts as functional.
Assay [20] relates to Mus musculus. Put plainly: Antidiabetic activity in C57BL/Ks db/db mouse assessed as normalization of fasting blood glucose level at 10 mg/kg relative to vehicle-treated sham control. Format: functional.
Assay [21] relates to Mus musculus. The experiment in a line: Antidyslipidemic activity in C57BL/Ks db/db mouse assessed as increase in serum HDL-cholesterol level at 10 mg/kg measured on day 10 to 15 relative to vehicle-treated sham control. It counts as functional.
Assay [22] has as its system Mus musculus. The experiment in a line: Antidyslipidemic activity in C57BL/Ks db/db mouse assessed as reduction of serum cholesterol level at 10 mg/kg measured on day 10 to 15 relative to vehicle-treated sham control. It counts as functional.
For assay [23], the system named is Mus musculus. The experiment in a line: Antidyslipidemic activity in C57BL/Ks db/db mouse assessed as reduction of serum triglyceride level at 10 mg/kg measured on day 10 to 15 relative to vehicle-treated sham control. Format: functional.
Assay [24] has as its system Mus musculus. Put plainly: Antihyperglycemic activity in C57BL/Ks db/db mouse assessed as reduction of blood glucose AUC (0 to 120 mins) at 10 mg/kg, po measured on day 15 by OGTT relative to vehicle-treated sham control. Format: functional.
In assay [25] the test system is Mus musculus. The experiment in a line: Antihyperglycemic activity in C57BL/Ks db/db mouse assessed as reduction of blood glucose AUC (0 to 120 mins) at 10 mg/kg measured on day 10 by OGTT relative to vehicle-treated sham control. It counts as functional.

Active and inactive are the calls of the source. No cut-off for these calls is given here.

For `O=C(NCc1ccccc1)NCc1c[nH]c2ccc(Cl)cc12`, the inhibition in [1] was determined as 19%.

For `COc1ccc(CNC(=O)NCc2cccc([N+](=O)[O-])c2)cc1`, the inhibition in [1] was determined as 2.85%.

For the compound `Cc1ccc(C(=O)Nc2ccc(S(=O)(=O)O)c3cc(S(=O)(=O)O)cc(S(=O)(=O)O)c23)cc1NC(=O)c1cccc(NC(=O)Nc2cccc(C(=O)Nc3cc(C(=O)Nc4ccc(S(=O)(=O)O)c5cc(S(=O)(=O)O)cc(S(=O)(=O)O)c45)ccc3C)c2)c1`, the inhibition in [1] came to 60%.

Regarding `COc1cc(CNC(=O)NCc2cccc([N+](=O)[O-])c2)cc(OC)c1OC`, in [1], the inhibition worked out at 7.5%.

On to `O=C(NCc1ccccc1)NCc1ccc([N+](=O)[O-])cc1`, for which the inhibition in [1] was found to be 0.9%.

`CC(=O)Nc1ccc(CNC(=O)NCc2ccccc2)cc1`: the results for the Activity with Rattus norvegicus [2] and with Rattus norvegicus [3] were 14.8% and 14.2%, respectively. Further, the half-maximal inhibitory concentration (IC50) in assay [4] stood at 9.39 µM. For the same compound, the inhibition in assay [1] was 60.9%.

With `O=C(NCc1ccccc1)NCc1ccsc1`, in [1], the inhibition is 31.2%.

Take `O=C(NCc1cccc([N+](=O)[O-])c1)NCc1cccc(-c2cccc([N+](=O)[O-])c2)n1`: the inhibition in [1] was 40%.

For `O=C(NCc1cccc([N+](=O)[O-])c1)NCc1ccccc1[N+](=O)[O-]`, the outcome with Mus musculus [5] was Active. For the same compound, the “fold change (FC)” value in the assay with Mus musculus [6] turned out to be 1.25. For the same compound, the Efficacy in the assay on Mus musculus [7] came out at 69.7%; with Mus musculus [8], 34.5%; with Mus musculus [9], 52.3%; in the assay with Mus musculus [10] it was 46.8%; with Mus musculus [11], 16.3%; in the assay with Mus musculus [12], 8.9%. Also, the Efficacy is recorded as 35.9% in the assay with Mus musculus [13] and 24.1% in the assay on Mus musculus [14]. Moreover, the Activity is 21.7% with Rattus norvegicus [2] and 20.4% in the assay on Rattus norvegicus [3]. The Ki in assay [15] turned out to be 7.88 µM. Also, the IC50 in assay [4] was determined as 7.47 µM. The inhibition in assay [1] came to 79.4%.

Consider `O=C(NCc1ccccc1)NCc1ccc(-c2ccc([N+](=O)[O-])cc2)o1`, for which the Activity with Rattus norvegicus [2] worked out at 18.8%; in the assay on Rattus norvegicus [3], 12.5%. Further, the inhibition in assay [1] came out at 21.4%.

On to `COc1cc(Cl)c(CNC(=O)NCc2ccccc2)c(Cl)c1OC`, for which, in assay [1], the inhibition came out at 13.7%.

As to `O=C(NCc1cccc([N+](=O)[O-])c1)NCc1ccc(-c2ccc([N+](=O)[O-])cc2)o1`, the Activity amounted to 20% with Rattus norvegicus [2] and 18.4% with Rattus norvegicus [3]. Further, the IC50 in [4] amounted to 8.06 µM. Besides, the inhibition in assay [1] came out at 68.4%.

Consider `CC(C)(C)c1cc(CNC(=O)NCc2ccccc2)c(O)c(C(C)(C)C)c1`, for which, in assay [1], the inhibition is 18.9%.

Regarding `COc1cc(OC)c(CNC(=O)NCc2ccccc2)c(OC)c1`, the Activity in the assay on Rattus norvegicus [2] came out at 18.6%; in the assay on Rattus norvegicus [3] it was 16.1%. In addition, in assay [4], the half-inhibitory concentration (IC50) came to 7.6 µM. Also, the inhibition in assay [1] worked out at 78.8%.

On to `O=C(NCc1ccccc1)NCc1cccc([N+](=O)[O-])c1`, for which, in assay [1], the inhibition came out at 2.4%.

With `CN(C)C(=N)NC(=N)N` [METFORMIN], the Activity with Rattus norvegicus [2] was 23.3%; in the assay with Rattus norvegicus [3], 21%.

On to `O=C(NCc1cccc([N+](=O)[O-])c1)NCc1ccco1`, for which, in assay [1], the inhibition was 46.8%.

Turning to `COc1cc(CNC(=O)NCc2ccccc2)ccc1O`, in [1], the inhibition is 14.9%.

Turning to `O=C(NCc1ccccc1)NCc1ccccc1[N+](=O)[O-]`, the inhibition in assay [1] stood at 2.1%.

In the case of `COc1cc(CNC(=O)NCc2cccc([N+](=O)[O-])c2)cc(OC)c1`, the inhibition in assay [1] came to 2.81%.

As to `COc1cc(Cl)c(CNC(=O)NCc2cccc([N+](=O)[O-])c2)c(Cl)c1OC`, the Activity is on record as 2.54% in the assay on Rattus norvegicus [2] and 7.26% in the assay with Rattus norvegicus [3]. The IC50 in assay [4] is 9.91 µM. The inhibition in assay [1] was 56.6%.

On to `CCc1ccc(CCOc2ccc(CC3SC(=O)NC3=O)cc2)nc1` (stereo unspecified) [PIOGLITAZONE], for which the result with Mus musculus [16] was Active. Moreover, the “fold change (FC)” value in the assay with Mus musculus [17] is listed as 1.37. Further, the Efficacy stood at 70.3% with Mus musculus [18]; 46.1% with Mus musculus [19]; 64.7% in the assay with Mus musculus [20]; 11.1% with Mus musculus [21]; 9.17% with Mus musculus [22]; 12.6% in the assay with Mus musculus [23]. Moreover, the figures for the Efficacy in the assay with Mus musculus [24] and with Mus musculus [25] were 52.9% and 40.8%, respectively.

Consider `O=C(NCc1cccc(Cl)c1)NCc1cccc([N+](=O)[O-])c1`, for which the inhibition in assay [1] turned out to be 32.9%.

One may read the inhibition as the change of the read-out against control, counted positive when it falls. One may read the IC50 as the midpoint of a concentration-inhibition curve. Usually Ki stands for a dissociation constant, usually derived from enzyme kinetics or from competition with a known ligand.
